# Test results reported in US20180291335A1, “MODIFIED POLYNUCLEOTIDES FOR ALTERING CELL PHENOTYPE” (ModernaTX, Inc., priority 2012, published 2018).
# Legend:
# HeLa cells [1] = assay: Luciferase in HeLa cells using a combination of modifications; format: cell-based, human; conditions: 83 ng luciferase modified RNA, 18 to 22 hours
# Experimental: To evaluate using of 2′fluoro-modified mRNA in combination with other modification a series of mRNA were transcribed using either wild-type T7 polymerase (non-fluoro-containing compounds) or using mutant T7 polymerases (fluyoro-containing compounds) as described in Example 86. All modified mRNA were tested by in vitro transfection in HeLa cells.
# (§1) The day before transfection, 20,000 HeLa cells (ATCC no. CCL-2; Manassas, Va.) were harvested by treatment with Trypsin-EDTA solution (LifeTechnologies, Grand Island, N.Y.) and seeded in a total volume of 100 ul EMEM medium (supplemented with 10% FCS and 1× Glutamax) per well in a 96-well cell culture plate (Corning, Manassas, Va.). The cells were grown at […] in 5% CO2 atmosphere overnight. […] Lipofectamine 2000 (LifeTechnologies, Grand Island, N.Y.) was used as transfection reagent and 0.2 ul were diluted in 10 ul final volume of OPTI-MEM. After 5 minutes of incubation at room temperature, both solutions were combined and incubated an additional 15 minute at room temperature. Then the 20 ul combined solution was added to the 100 ul cell culture medium containing the HeLa cells and incubated at room temperature.
# (§2) After 18 to 22 hours of incubation cells expressing luciferase were lysed with 100 ul of Passive Lysis Buffer (Promega, Madison, Wis.) according to manufacturer instructions. Aliquots of the lysates were transferred to white opaque polystyrene 96-well plates (Corning, Manassas, Va.) and combined with 100 ul complete luciferase assay solution (Promega, Madison, Wis.). The lysate volumes were adjusted or diluted until no more than 2 mio relative light units (RLU) per well were detected for the strongest signal producing samples and the RLUs for each chemistry tested are shown in Table 26. The plate reader was a BioTek Synergy H1 (BioTek, Winooski, Vt.). The background signal of the plates without reagent was about 200 relative light units per well.
# Balb-C mice [2] = assay: In vivo screening of combination luciferase modified mRNA, whole-body bioluminescence; conditions: subcutaneous, 100 ug mRNA in 1×PBS, imaged 8 hours after dosing
# Experimental: (§3) A control of PBS was also tested. The dosages of the modified luciferase mRNA is also outlined in Table 22. 8 hours after dosing the mice were imaged to determine luciferase expression. Twenty minutes prior to imaging, mice were injected intraperitoneally with a D-luciferin solution at 150 mg/kg. Animals were then anesthetized and images were acquired with an IVIS Lumina II imaging system (Perkin Elmer). Bioluminescence was measured as total flux (photons/second) of the entire mouse.
# HeLa cells [3] = assay: G-CSF modified mRNA transfected in HeLa cells, G-CSF ELISA; format: cell-based, human; conditions: HeLa cells, ELISA
# In short: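 Human G-CSF mRNAs bearing various chemical modifications, made with a mutant T7 polymerase, were either transfected into HeLa cells or added to rabbit reticulocyte lysate at 250 ng mRNA. G-CSF protein was quantified by ELISA.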
# [4] = test system: Rabbit Reticulocyte Lysate; assay: 2′Fluoro luciferase mRNA in rabbit reticulocyte lysate assay; format: biochemical; conditions: Rabbit reticulysates, 250 ng luciferase mRNA, 60 minutes
# Experimental: For the rabbit reticulocyte lysate assay, 2′-fluoro-containing luciferase mRNA were diluted in sterile nuclease-free water to a final amount of 250 ng in 10 ul and added to 40 ul of freshly prepared Rabbit Reticulocyte Lysate and the in vitro translation reaction was done in a standard 1.5 mL polypropylene reaction tube (Thermo Fisher Scientific, Waltham, Mass.) at 30° C. in a dry heating block. The translation assay was done with the Rabbit Reticulocyte Lysate (nuclease-treated) kit (Promega, Madison, Wis.) according to the manufacturer's instructions. The reaction buffer was supplemented with a one-to-one blend of provided amino acid stock solutions devoid of either Leucine or Methionine resulting in a reaction mix containing sufficient amounts of both amino acids to allow effective in vitro translation. […]
# Aliquots of the in vitro translation reaction containing luciferase modified RNA were transferred to white opaque polystyrene 96-well plates (Corning, Manassas, Va.) and combined with 100 ul complete luciferase assay solution (Promega, Madison, Wis.). The volumes of the in vitro translation reactions were adjusted or diluted until no more than 2 mio relative light units (RLUs) per well were detected for the strongest signal producing samples and the RLUs for each chemistry tested are shown in Tables 24 and 25. The plate reader was a BioTek Synergy H1 (BioTek, Winooski, Vt.). […]
# HeLa cells [5] = assay: 2′Fluoro luciferase mRNA transfection in HeLa cells; format: cell-based, human; conditions: 83 ng 2′fluoro-containing luciferase RNA, 18 to 22 hours
# Experimental: The 2′Fluoro-modified mRNA were then transfected into HeLa cells to assess protein production in a cell context and the same mRNA were also assessed in a cell-free rabbit reticulocyte system. A control of unmodified luciferase (natural luciferase) was used for both transcription experiments, a control of untreated and mock transfected (Lipofectamine 2000 alone) were also analyzed for the HeLa transfection and a control of no RNA was analyzed for the rabbit reticulysates.
# For the HeLa transfection experiments, the day before transfection, 20,000 HeLa cells (ATCC no. CCL-2; Manassas, Va.) were harvested by treatment with Trypsin-EDTA solution (LifeTechnologies, Grand Island, N.Y.) and seeded in a total volume of 100 ul EMEM medium (supplemented with 10% FCS and 1× Glutamax) per well in a 96-well cell culture plate (Corning, Manassas, Va.). The cells were grown at […] in 5% CO2 atmosphere overnight. […] Lipofectamine 2000 (LifeTechnologies, Grand Island, N.Y.) was used as transfection reagent and 0.2 ul were diluted in 10 ul final volume of OPTI-MEM. […] The lysate volumes were adjusted or diluted until no more than 2 mio relative light units (RLU) per well were detected for the strongest signal producing samples and the RLUs for each chemistry tested are shown in Table 24. The plate reader was a BioTek Synergy H1 (BioTek, Winooski, Vt.). […]
# Balb-C mice [6] = assay: In vivo screening of luciferase modified mRNA, whole-body bioluminescence; conditions: subcutaneous; for Luciferase expression (photon/second): 42 to 103 ug mRNA in 1×PBS, imaged 8 hours after dosing, total flux of entire mouse
# Experimental: as §3
# [7] = test system: peripheral blood mononuclear cells (PBMC); assay: In vitro screening in PBMC: G-CSF protein expression by ELISA; format: cell-based, human
# In short: (§4)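 Supernatants harvested, frozen, then assayed by ELISA.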
# interferon-alpha (IFN-α) = assay: In vitro screening in PBMC: interferon-alpha induction by ELISA; format: cell-based, human
# In short: as §4
# [8] = test system: tumor necrosis factor alpha (TNF-α); assay: In vitro screening in PBMC: tumor necrosis factor alpha induction by ELISA; format: cell-based, human
# In short: as §4
# rabbit reticulysates = assay: G-CSF modified mRNA in rabbit reticulysates, G-CSF ELISA; format: biochemical; conditions: 250 ng of modified mRNA
# Experimental: To assess the activity of all our different chemical modifications in the context of a second open reading frame, we replicated experiments previously conducted using luciferase mRNA, with human G-CSF mRNA. […] The mutant T7 polymerase was obtained commercially (Durascribe® T7 Transcription kit (Cat. No. DS010925) (Epicentre®, Madison, Wis.).
# The modified RNA in Tables 27 and 28 were transfected in vitro in HeLa cells or added to rabbit reticulysates (250 ng of modified mRNA) as indicated. […] In Table 27, “NT” means not tested.
# [9] = test system: Rabbit Reticulocyte Lysate; assay: In vitro screening in rabbit reticulocyte lysates, luciferase mRNA translation; format: biochemical; conditions: 250 ng luciferase mRNA, 60 minutes, 30° C.
# Experimental: The diluted luciferase was added to 40 ul of freshly prepared Rabbit Reticulocyte Lysate and the in vitro translation reaction was done in a standard 1.5 mL polypropylene reaction tube (Thermo Fisher Scientific, Waltham, Mass.) at 30° C. in a dry heating block. The translation assay was done with the Rabbit Reticulocyte Lysate (nuclease-treated) kit (Promega, Madison, Wis.) according to the manufacturer's instructions. The reaction buffer was supplemented with a one-to-one blend of provided amino acid stock solutions devoid of either Leucine or Methionine resulting in a reaction mix containing sufficient amounts of both amino acids to allow effective in vitro translation.
# After 60 minutes of incubation, the reaction was stopped by placing the reaction tubes on ice. Aliquots of the in vitro translation reaction containing luciferase modified RNA were transferred to white opaque polystyrene 96-well plates (Corning, Manassas, Va.) and combined with 100 ul complete luciferase assay solution (Promega, Madison, Wis.). The volumes of the in vitro translation reactions were adjusted or diluted until no more than 2 mio relative light units (RLUs) per well were detected for the strongest signal producing samples and the RLUs for each chemistry tested are shown in Table 20. The plate reader was a BioTek Synergy H1 (BioTek, Winooski, Vt.). The background signal of the plates without reagent was about 200 relative light units per well.
# [10] = test system: human embryonic kidney 293 (HEK293) cells; assay: Cytotoxicity of NTPs, CYTO TOX-GLO assay; format: cell-based
# Experimental: The cytotoxicity of natural and modified nucleoside triphosphates (NTPs) alone or in combination with other bases, was analyzed in human embryonic kidney 293 (HEK293) cells in the absence of transfection reagent. […] 10 ul of the NTPs outlined in Table 12 were combined with 10 ul of lipid dilution and incubated for 30 minutes to form a complex before 80 ul of the HEK293 cell suspension was added to the NTP complex.
# Natural and modified NTPs were transfected at a concentration of 2.1 nM, 21 nM, 210 nM, 2.1 um, 21 uM, 210 um or 2.1 mM. NTPs in combination were transfected at a total concentration of NTPs of 8.4 nM, 84 nM, 840 nM, 8.4 uM, 84 uM, 840 uM and 8.4 mM. […] The cytotoxicity of the NTPs and the modified G-CSF mRNA was assayed at 4, 24, 48 and 72 hours post addition to the HEK293 cells using a CYTO TOX-GLO™ assay from Promega (Madison, Wis.) following the manufacturer protocol except pippeting was used for lysing the cells instead of shaking the plates.
# HeLa cells [11] = assay: In vitro screening in HeLa cells, luciferase modified RNA; format: cell-based, human; conditions: HeLa cells, 83 ng luciferase modified RNA, 18 to 22 hours
# Experimental: as §1
# as §2, with “19.” for “26.”
# [12] = PBMC Donor 1, 500 ng G-CSF mRNA
# [13] = PBMC Donor 2, 500 ng G-CSF mRNA
# [14] = PBMC Donor 3, 500 ng G-CSF mRNA
compound,measurement,setting,value
5-methylcytidine/where 50% of the uridine is replaced with 2-thiouridine: Luciferase mRNA (SEQ ID NO: 409) with 5-methylcytidine and 50% of the uridine replaced with 2-thiouridine,RLU,HeLa cells [1],"41,601 RLU"
same,Luciferase expression (photon/second),Balb-C mice [2],2.39E+06 photon/second
2′-flurorouridine: Luciferase mRNA (SEQ ID NO: 409) fully modified with 2′-fluorouridine,G-CSF protein (pg/ml) HeLa cells,HeLa cells [3]; combination chemistries,0 pg/mL
same,RLU,HeLa cells [1],305 RLU
same,RLU,[4],258 RLU
same,RLU,HeLa cells [5],6767.5 RLU
same,Luciferase expression (photon/second),Balb-C mice [6],3.47E+05 photon/second
same,in vivo activity,"Balb-C mice [6]; luciferase mRNA, result in words",exception
O=c1[nH]cc([C@@H]2O[C@H](CO)[C@@H](O)[C@H]2O)c(=O)[nH]1 [Pseudouridine],G-CSF protein (pg/ml) HeLa cells,HeLa cells [3]; G-CSF mRNA,"1,150,909 pg/ml"
same,G-CSF Protein Expression,[7]; [12],2477 pg/mL
same,G-CSF Protein Expression,[7]; [13],"1,909 pg/ml"
same,G-CSF Protein Expression,[7]; [14],"1,498 pg/ml"
same,IFN-α Expression,interferon-alpha (IFN-α); [12],120 pg/mL
same,IFN-α Expression,interferon-alpha (IFN-α); [13],77 pg/mL
same,IFN-α Expression,interferon-alpha (IFN-α); [14],171 pg/mL
same,cytokine induction,"interferon-alpha (IFN-α); PBMC, G-CSF mRNA, result in words",detectable cytokine induction which is above background
same,TNF-α Expression,[8]; [12],36 pg/mL
same,TNF-α Expression,[8]; [13],81 pg/mL
same,TNF-α Expression,[8]; [14],126 pg/mL
same,Luciferase expression (photon/second),Balb-C mice [6],1.36E+07 photon/second
same,G-CSF protein (pg/ml) Rabbit reticulysates cells,rabbit reticulysates,"147,875 pg/ml"
same,RLU,[9],"587,795 RLU"
same,toxicity as compared to the untreated cells,[10],not toxic
same,RLU,HeLa cells [11],"655,632 RLU"
